Test system: HCV 1b-377-neo replicon cells
Assay: HCV replicon FRET assay
Format: cell-based
Conditions: Hepatitis C virus; HCV replicon; read-out: Activity (EC50)

O=C(Nc1ccc(/C=C/c2ccc(NC(=O)[C@@H]3C=CCN3C(=O)Cc3ccncc3)cc2)cc1)[C@@H]1C=CCN1C(=O)Cc1ccncc1 [Example 221]
EC50: 0.1 to 1 µM

O=C(Nc1ccc(/C=C/c2ccc(NC(=O)[C@@H]3CCCN3C(=O)C3CC3)cc2)cc1)[C@@H]1CCCN1C(=O)C1CC1 [Example 31]
EC50: 0.0001 to 0.09 µM

CCc1ccnc(C(=O)N2CCC[C@H]2C(=O)Nc2ccc(/C=C/c3ccc(NC(=O)[C@@H]4CCCN4C(=O)c4cc(CC)ccn4)cc3)cc2)c1 [Example 188]
EC50: 0.1 to 1 µM

CC(=O)N1CC=C[C@H]1C(=O)Nc1ccc(/C=C/c2ccc(NC(=O)[C@@H]3C=CCN3C(=O)Cc3ccncc3)cc2)cc1 [Example 220]
EC50: 1 to 10 µM

CCc1ccccc1C(=O)N1C[C@@H](N(C)C)C[C@H]1C(=O)Nc1ccc(/C=C/c2ccc(NC(=O)[C@@H]3C[C@H](N(C)C)CN3C(=O)c3ccccc3CC)cc2)cc1 [Example 228]
EC50: 1 to 10 µM

COc1ccc(Cl)cc1C(=O)N1CCC[C@H]1C(=O)Nc1ccc(/C=C/c2ccc(NC(=O)[C@@H]3CCCN3C(=O)c3cc(Cl)ccc3OC)cc2)cc1 [Example 138]
EC50: 1 to 10 µM

O=C(Nc1ccc(/C=C/c2ccc(NC(=O)[C@@H]3CCCN3C(=O)OCc3ccccc3)cc2)cc1)[C@@H]1CCCN1C(=O)OCc1ccccc1 [Example 2]
EC50: 0.0001 to 0.09 µM

Cc1cc(C)c(S(=O)(=O)N2CCC[C@H]2C(=O)Nc2ccc(/C=C/c3ccc(NC(=O)[C@@H]4CCCN4S(=O)(=O)c4c(C)cc(C)cc4C)cc3)cc2)c(C)c1 [Example 279]
EC50: 0.1 to 1 µM

CSCC(=O)N1CCC[C@H]1C(=O)Nc1ccc(/C=C/c2ccc(NC(=O)[C@@H]3CCCN3C(=O)c3ccccn3)cc2)cc1 [Example 84]
EC50: 0.0001 to 0.09 µM

CCc1cc(Br)ccc1S(=O)(=O)N1CCC[C@H]1C(=O)Nc1ccc(/C=C/c2ccc(NC(=O)[C@@H]3CCCN3S(=O)(=O)c3ccc(Br)cc3CC)cc2)cc1 [Example 278]
EC50: 1 to 10 µM

O=C(Nc1ccc(/C=C/c2ccc(NC(=O)[C@@H]3CCCN3C(=O)[C@H]3CCCO3)cc2)cc1)[C@H]1CCCO1 [Example 263]
EC50: 1 to 10 µM

O=C(Nc1ccc(/C=C/c2ccc(NC(=O)[C@@H]3CCCN3C(=O)Cc3ccccc3)cc2)cc1)[C@@H]1CCCN1 [Example 252]
EC50: 1 to 10 µM

O=C(Cc1cccnc1)Nc1ccc(/C=C/c2ccc(NC(=O)[C@@H]3CCCN3C(=O)Cc3cccnc3)cc2)cc1 [Example 270]
EC50: 0.0001 to 0.09 µM

Cn1cc(C(=O)N2CCC[C@H]2C(=O)Nc2ccc(/C=C/c3ccc(NC(=O)[C@@H]4CCCN4C(=O)c4cn(C)c5ccccc45)cc3)cc2)c2ccccc21 [Example 207]
EC50: 0.1 to 1 µM

COc1ccccc1C(=O)N1CCC[C@H]1C(=O)Nc1ccc(/C=C/c2ccc(NC(=O)[C@@H]3CCCN3C(=O)c3ccccc3OC)cc2)cc1 [Example 133]
EC50: 1 to 10 µM

O=C(CC1CC1)Nc1ccc(/C=C/c2ccc(NC(=O)[C@@H]3CCCN3C(=O)[C@H]3CCCO3)cc2)cc1 [Example 261]
EC50: 1 to 10 µM

O=C(Nc1ccc(/C=C/c2ccc(NC(=O)[C@@H]3CCCN3C(=O)c3ccccc3)cc2)cc1)[C@@H]1CCCN1C(=O)c1ccccc1 [Example 61]
EC50: 0.1 to 1 µM

C[C@@](O)(C(=O)N1CCC[C@H]1C(=O)Nc1ccc(/C=C/c2ccc(NC(=O)[C@@H]3CCCN3C(=O)[C@@](C)(O)c3ccccc3)cc2)cc1)c1ccccc1 [Example 299]
EC50: 0.0001 to 0.09 µM

Cc1noc(C)c1C(=O)N1CCC[C@H]1C(=O)Nc1ccc(/C=C/c2ccc(NC(=O)[C@@H]3CCCN3C(=O)c3c(C)noc3C)cc2)cc1 [Example 202]
EC50: 0.1 to 1 µM

Cc1cc(CC(=O)N2CCC[C@H]2C(=O)Nc2ccc(/C=C/c3ccc(NC(=O)[C@@H]4CCCN4C(=O)Cc4cc(C)no4)cc3)cc2)on1 [Example 36]
EC50: 0.0001 to 0.09 µM

O=C(Nc1ccc(/C=C/c2ccc(NC(=O)[C@@H]3CCCN3C(=O)c3cnccn3)cc2)cc1)[C@@H]1CCCN1C(=O)c1cnccn1 [Example 178]
EC50: 1 to 10 µM

O=C(Nc1ccc(/C=C/c2ccc(NC(=O)[C@@H]3CCCCN3C(=O)OCc3ccccc3)cc2)cc1)[C@@H]1CCCCN1C(=O)OCc1ccccc1 [Example 9]
EC50: 0.0001 to 0.09 µM

Cn1cccc1C(=O)N1CCC[C@H]1C(=O)Nc1ccc(/C=C/c2ccc(NC(=O)[C@@H]3CCCN3C(=O)c3cccn3C)cc2)cc1 [Example 121]
EC50: 0.0001 to 0.09 µM

O=C(Nc1ccc(/C=C/c2ccc(NC(=O)[C@@H]3CCCN3C(=O)Cc3ccccc3Oc3ccccc3)cc2)cc1)[C@@H]1CCCN1C(=O)Cc1ccccc1Oc1ccccc1 [Example 168]
EC50: 1 to 10 µM

CCO[C@@H]1C[C@@H](C(=O)Nc2ccc(/C=C/c3ccc(NC(=O)[C@@H]4C[C@H](OCC)CN4C(=O)OCc4ccccc4)cc3)cc2)N(C(=O)OCc2ccccc2)C1 [Example 16]
EC50: 1 to 10 µM

CCC(=O)N1CCC[C@H]1C(=O)Nc1ccc(/C=C/c2ccc(NC(=O)[C@@H]3CCCN3C(=O)Cc3cccs3)cc2)cc1 [Example 103]
EC50: 0.0001 to 0.09 µM

COc1ccc(C)cc1C(=O)N1CCC[C@H]1C(=O)Nc1ccc(/C=C/c2ccc(NC(=O)[C@@H]3CCCN3C(=O)c3cc(C)ccc3OC)cc2)cc1 [Example 139]
EC50: 0.1 to 1 µM

Cn1cnc(CC(=O)N2CCC[C@H]2C(=O)Nc2ccc(/C=C/c3ccc(NC(=O)[C@@H]4CCCN4C(=O)Cc4cn(C)cn4)cc3)cc2)c1 [Example 41]
EC50: 0.0001 to 0.09 µM

O=C(Nc1ccc(/C=C/c2ccc(NC(=O)[C@@H]3CCCN3C(=O)c3ncccc3-c3cccc(Cl)c3)cc2)cc1)[C@@H]1CCCN1C(=O)c1ncccc1-c1cccc(Cl)c1 [Example 232]
EC50: 1 to 10 µM

Cc1nc2ccccn2c1C(=O)N1CCC[C@H]1C(=O)Nc1ccc(/C=C/c2ccc(NC(=O)[C@@H]3CCCN3C(=O)c3c(C)nc4ccccn34)cc2)cc1 [Example 187]
EC50: 0.0001 to 0.09 µM

Cc1cc(/C=C/c2ccc(NC(=O)[C@@H]3CCCN3C(=O)Cc3ccccc3)c(C)c2)ccc1NC(=O)[C@@H]1CCCN1C(=O)Cc1ccccc1 [Example 277]
EC50: 0.0001 to 0.09 µM

COCCOCC(=O)N1CCC[C@H]1C(=O)Nc1ccc(/C=C/c2ccc(NC(=O)[C@@H]3CCCN3C(=O)COCCOC)cc2)cc1 [Example 27]
EC50: 0.1 to 1 µM

O=C(Nc1ccc(/C=C/c2ccc(NC(=O)[C@@H]3COCN3C(=O)OCc3ccccc3)cc2)cc1)[C@@H]1COCN1C(=O)OCc1ccccc1 [Example 11]
EC50: 1 to 10 µM

COc1cccc(CCC(=O)N2CCC[C@H]2C(=O)Nc2ccc(/C=C/c3ccc(NC(=O)[C@@H]4CCCN4C(=O)CCc4cccc(OC)c4)cc3)cc2)c1 [Example 33]
EC50: 0.1 to 1 µM

CCc1cccc(C)c1C(=O)N1CCC[C@H]1C(=O)Nc1ccc(/C=C/c2ccc(NC(=O)[C@@H]3CCCN3C(=O)c3c(C)cccc3CC)cc2)cc1 [Example 206]
EC50: 1 to 10 µM

O=C(Nc1ccc(/C=C/c2ccc(NC(=O)[C@@H]3CCCN3C(=O)c3ncccc3-c3ccc(Cl)cc3)cc2)cc1)[C@@H]1CCCN1C(=O)c1ncccc1-c1ccc(Cl)cc1 [Example 230]
EC50: 0.1 to 1 µM

O=C(Nc1ccc(/C=C/c2ccc(NC(=O)[C@@H]3CCCN3C(=O)c3ccccc3OCc3ccccc3)cc2)cc1)[C@@H]1CCCN1C(=O)c1ccccc1OCc1ccccc1 [Example 148]
EC50: 1 to 10 µM

CC(C)(C)OC(=O)N1c2ccccc2C[C@H]1C(=O)Nc1ccc(/C=C/c2ccc(NC(=O)[C@@H]3Cc4ccccc4N3C(=O)OC(C)(C)C)cc2)cc1 [Example 20]
EC50: 0.1 to 1 µM

Cc1ccsc1C(=O)N1CCC[C@H]1C(=O)Nc1ccc(/C=C/c2ccc(NC(=O)[C@@H]3CCCN3C(=O)c3sccc3C)cc2)cc1 [Example 198]
EC50: 0.1 to 1 µM

Cn1ccnc1C(=O)N1CCC[C@H]1C(=O)Nc1ccc(/C=C/c2ccc(NC(=O)[C@@H]3CCCN3C(=O)c3nccn3C)cc2)cc1 [Example 64]
EC50: 0.0001 to 0.09 µM

O=C(Nc1ccc(/C=C/c2ccc(NS(=O)(=O)Cc3ccccc3)cc2)cc1)[C@@H]1CCCN1C(=O)Cc1ccccc1 [Example 250B]
EC50: 0.1 to 1 µM

O=C(Nc1ccc(/C=C/c2ccc(NC(=O)[C@@H]3CCCN3C(=O)N3CCOCC3)cc2)cc1)[C@@H]1CCCN1C(=O)N1CCOCC1 [Example 287]
EC50: 0.0001 to 0.09 µM

O=C(Nc1ccc(/C=C/c2ccc(NC(=O)[C@@H]3CCCN3C(=O)c3cccc4cc[nH]c34)cc2)cc1)[C@@H]1CCCN1C(=O)c1cccc2cc[nH]c12 [Example 149]
EC50: 0.1 to 1 µM

CCc1ccccc1C(=O)N1CCC[C@@H]1C(=O)Nc1ccc(/C=C/c2ccc(NC(=O)[C@@H]3CCCN3C(=O)c3ccccc3CC)cc2)cc1 [Example 124]
EC50: 1 to 10 µM

O=C(Nc1ccc(/C=C/c2ccc(NC(=O)C3CC(=O)N(CCc4cccs4)C3)cc2)cc1)C1CC(=O)N(CCc2cccs2)C1 (stereo not shown) [Example 14]
EC50: 1 to 10 µM

CC(=O)N1CCC[C@H]1C(=O)Nc1ccc(/C=C/c2ccc(NC(=O)[C@@H]3CCCN3C(=O)Cc3ccccn3)cc2)cc1 [Example 49]
EC50: 0.0001 to 0.09 µM

COCC(=O)N1CCC[C@H]1C(=O)Nc1ccc(/C=C/c2ccc(NC(=O)[C@@H]3CCCN3C(=O)c3ccc(N(C)C)cc3)cc2)cc1 [Example 91]
EC50: 0.1 to 1 µM

Cc1ccoc1C(=O)N1CCC[C@H]1C(=O)Nc1ccc(/C=C/c2ccc(NC(=O)[C@@H]3CCCN3C(=O)c3occc3C)cc2)cc1 [Example 200]
EC50: 0.1 to 1 µM

COC(=O)N1c2ccccc2C[C@H]1C(=O)N1CCC[C@H]1C(=O)Nc1ccc(/C=C/c2ccc(NC(=O)[C@@H]3CCCN3C(=O)[C@@H]3Cc4ccccc4N3C(=O)OC)cc2)cc1 [Example 189]
EC50: 1 to 10 µM

CC(C)(C)O[C@@H]1C[C@@H](C(=O)Nc2ccc(/C=C/c3ccc(NC(=O)[C@@H]4C[C@@H](OC(C)(C)C)CN4C(=O)[C@H]4CCCO4)cc3)cc2)N(C(=O)[C@H]2CCCO2)C1 [Example 130]
EC50: 0.0001 to 0.09 µM

COCC(=O)N1CCC[C@H]1C(=O)Nc1ccc(/C=C/c2ccc(NC(=O)[C@@H]3CCCN3C(=O)Cc3cc(C)no3)cc2)cc1 [Example 95]
EC50: 0.0001 to 0.09 µM

O=C(Nc1ccc(/C=C/c2ccc(NC(=O)[C@@H]3CCCN3C(=O)Cc3ccccc3)cc2)cc1)[C@H]1CCCN1C(=O)Cc1ccccc1 [Example 255]
EC50: 0.1 to 1 µM

O=C(Nc1ccc(/C=C/c2ccc(NC(=O)[C@@H]3CCCN3C(=O)[C@H]3CCCO3)cc2)cc1)[C@@H]1CCCN1C(=O)[C@H]1CCCO1 [Example 110]
EC50: 0.0001 to 0.09 µM

O=C(Nc1ccc(/C=C/c2ccc(NC(=O)[C@@H]3CCCN3C(=O)c3ccccc3-c3ccccc3)cc2)cc1)[C@@H]1CCCN1C(=O)c1ccccc1-c1ccccc1 [Example 166]
EC50: 1 to 10 µM

CCOc1cccc(-c2cccnc2C(=O)N2CCC[C@H]2C(=O)Nc2ccc(/C=C/c3ccc(NC(=O)[C@@H]4CCCN4C(=O)c4ncccc4-c4cccc(OCC)c4)cc3)cc2)c1 [Example 231]
EC50: 1 to 10 µM
